The text below walks through data of patent US5847107A, “Method of preparing mixed glucosamine salts” (Rotta Research B.V. Amsterdam (Swiss Branch), priority 1996, dated 1998).

For data set [1] the following is noted: cited from earlier work.
Data set [2] in a line: Solubility (25° C. - w/v). It counts as physicochemical. The conditions noted are these: for Solubility in acetone, acetonitrile, tetrahydrofuran, dioxane: practically insoluble; for Solubility in methanol: slightly soluble; for Solubility in ethanol: very slightly soluble; for Solubility in water: very soluble.
Data set [3] is described as follows: Stability at 40° C. and 85% R.H. (appearance, titre). It counts as physicochemical.
Data set [4] is described as follows: Partition coefficient in phosphate buffer (pH 6.8)/n-octanol at 25° C. It is filed as physicochemical.
Data set [5] in a line: pH of a saturated aqueous solution at 20° C. It counts as physicochemical.
Data set [6] in a line: Stability at 25° C. and 60% R.H. (appearance, titre). It is filed as physicochemical.
Where [7] appears, read: 0 months, (*): Crystalline powder of pale cream colour.
[8] abbreviates: 18 months (after slight yellowing at 12 months).
[9] abbreviates: 24 months (after slight yellowing at 12 months).

Some results are limits rather than exact numbers.

As for `Cl.N[C@H]1C(O)O[C@H](CO)[C@@H](O)[C@@H]1O` (some centres unmarked) [glucosamine hydrochloride, reference compound], the Stability on storage entry in data set [1] (no particular precautions in time, temperature or humidity) is “stable”.
Regarding `Cl.N[C@H]1C(O)O[C@H](CO)[C@@H](O)[C@@H]1O.O=S(=O)([O-])[O-].[Mg+2]` (some centres unmarked) [Example 8], the “Solubility in benzene, chloroform, carbon tetrachloride, methylene chloride, ligroin, ethyl ether” value in data set [2] was “Insoluble”. In addition, in data set [2], the “Solubility in acetone, acetonitrile, tetrahydrofuran, dioxane” value is recorded as < 0.01 % (w/v). For the same compound, in data set [2], the Solubility in methanol result is given as “about 1 % (w/v)”. The Solubility in ethanol result in data set [2] is on record as “about 0.03 % (w/v)”. In addition, the Solubility in water entry in data set [2] is listed as “about 40 % (w/v)”. The Titre came out at 100.5% in data set [3] (0 months); 100.6% in data set [3] (3 months, 129600 min); 100.1% in data set [3] (6 months, 259200 min); 100.2% in data set [3] (9 months, 388800 min); 97.4% in data set [3] (12 months, 518400 min); 97.7% in data set [3] (18 months, 777600 min). For the same compound, the Titre in data set [3] (24 months, 1.0368e+06 min) is listed as 97.3%; in data set [6] (0 months), 100.5%; in data set [6] (3 months, 131400 min), 100.1%; in data set [6] (6 months, 262800 min), 99.8%; in data set [6] (9 months, 394200 min), 100.3%; in data set [6] (12 months, 525600 min), 100.6%. The Appearance entry in data set [3] (setting [7]) is “conforms”; in data set [3] (3 months) it was “unchanged”; in data set [3] (6 months) it was “unchanged”; in data set [3] (9 months), “unchanged”; in data set [3] (setting [8]), “unchanged”; in data set [3] (setting [9]), “unchanged”. In addition, the Appearance result in data set [6] (setting [7]) is “conforms”; in data set [6] (3 months), “unchanged”; in data set [6] (6 months) it was “unchanged”; in data set [6] (9 months), “unchanged”; in data set [6] (12 months), “unchanged”. Moreover, the Partition coefficient result in data set [4] was “practically infinite”. The “pH of a saturated aqueous solution” value in data set [5] was 3 +/-0.2.
Consider `Cl.N[C@H]1C(O)O[C@H](CO)[C@@H](O)[C@@H]1O.O=S(=O)([O-])[O-].[K+].[K+]` (some centres unmarked) [Example 6], for which the “Solubility in benzene, chloroform, carbon tetrachloride, methylene chloride, ligroin, ethyl ether” value in data set [2] is “Insoluble”. Besides, in data set [2], the “Solubility in acetone, acetonitrile, tetrahydrofuran, dioxane” value is reported as < 0.01 % (w/v). In data set [2], the Solubility in methanol result is “about 1 % (w/v)”. Also, the Solubility in ethanol entry in data set [2] was “about 0.03 % (w/v)”. The Solubility in water result in data set [2] is “about 40 % (w/v)”. For the same compound, the Titre is 100.1% in data set [3] (0 months); 100.3% in data set [3] (3 months, 129600 min); 99.8% in data set [3] (6 months, 259200 min); 100.0% in data set [3] (9 months, 388800 min); 95.7% in data set [3] (12 months, 518400 min); 96.2% in data set [3] (18 months, 777600 min). Further, the Titre was 95.5% in data set [3] (24 months, 1.0368e+06 min); 100.1% in data set [6] (0 months); 100.3% in data set [6] (3 months, 131400 min); 99.8% in data set [6] (6 months, 262800 min); 99.6% in data set [6] (9 months, 394200 min); 100.3% in data set [6] (12 months, 525600 min). Also, the Appearance result in data set [3] (setting [7]) is reported as “conforms”; in data set [3] (3 months), “unchanged”; in data set [3] (6 months) it was “unchanged”; in data set [3] (9 months) it was “unchanged”; in data set [3] (setting [8]) it was “unchanged”; in data set [3] (setting [9]), “unchanged”. The Appearance result in data set [6] (setting [7]) is “conforms”; in data set [6] (3 months), “unchanged”; in data set [6] (6 months) it was “unchanged”; in data set [6] (9 months), “unchanged”; in data set [6] (12 months), “unchanged”. In data set [4], the Partition coefficient result was “practically infinite”. In addition, the “pH of a saturated aqueous solution” value in data set [5] was 3 +/-0.2.
Regarding `N[C@H]1C(O)O[C@H](CO)[C@@H](O)[C@@H]1O.O=S(=O)(O)O` (some centres unmarked) [glucosamine sulphate, reference compound], the Hygroscopicity entry in data set [1] (background statement) is listed as “highly hygroscopic”.
